The values that follow are results of earlier work, collected in paper PMC9080292, “Correction: Rational design of a peptide capture agent for CXCL8 based on a model of the CXCL8:CXCR1 complex” (RSC Advances, 2018).

Square brackets hold non-standard residues; d marks the D form. Ends that are not written are not given here. Ahx = NCCCCCC(=O)O

The conditions of data set [1]: synthesized peptide, result in words; ref Helmer et al., RSC Adv., 2015, 5, 25657–25668; cited from earlier work.
The target of data set [2] is T1, CXCL8 (Homo sapiens, UniProt P10145).
T1 sequence (P10145 21-99): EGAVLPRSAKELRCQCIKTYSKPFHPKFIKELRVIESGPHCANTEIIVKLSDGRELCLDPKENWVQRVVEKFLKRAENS
The conditions noted are these: original publication; fluorescence anisotropy; now attributed to the peptide ending with glutamic acid; ref Helmer et al., RSC Adv., 2015, 5, 25657–25668; read-out: affinity (reported high affinity); cited from earlier work. On the procedure: This was confirmed by high resolution mass spectrometry. […] We conclude that all experiments were performed with the peptid ...
(In general: Fluorescence polarisation rises when a labelled molecule tumbles more slowly, as on binding a larger partner.)

With “AKWRMVLRI[Ahx]ADTLMRTE [IL8-RP-Loops, IL8 capture peptide; actually synthesized peptide with C-terminal glutamic acid]”, the “structure by CD-spectroscopy” value in data set [1] was “a helical structure”.
Take “AKWRMVLRI–Ahx–ADTLMRTE (AKWRMVLRI[Ahx]ADTLMRTE) [IL8-RP-Loops, IL8 capture peptide; actually synthesized peptide with C-terminal glutamic acid]”: the Kd in data set [2] is 500 ± 300 nM.
